Consider 30 compounds from patent US20260242372A1, “NOVEL IMIDAZOPYRIDINE AND PYRAZOLOPYRIDINE SULFONAMIDE DERIVATIVES” (Hoffmann-La Roche Inc., priority 2022, published 2026).

The experiment deals with human GPR17 short isoform (Homo sapiens, UniProt Q13304). Briefly: GPR17 cAMP assay (hGPR17 cAMP, TR-FRET, antagonist mode). Conditions: CHO-K1 cells stably expressing human GPR17 short isoform; EC80 of agonist MDL29,951; forskolin 15 μM; 30 min at room temperature. Type of experiment: cell-based. As for the experimental part: CHO-K1 cells stably expressing vector containing untagged human GPR17 short isoform (Roche) were cultured at 37° C./5% CO2 in DMEM (Dulbecco's Modified Eagle Medium): F-12 (1:1) supplemented with 10% foetal bovine serum and 400 μg/ml Geneticin.
Chain of human GPR17 short isoform (Q13304 29-367): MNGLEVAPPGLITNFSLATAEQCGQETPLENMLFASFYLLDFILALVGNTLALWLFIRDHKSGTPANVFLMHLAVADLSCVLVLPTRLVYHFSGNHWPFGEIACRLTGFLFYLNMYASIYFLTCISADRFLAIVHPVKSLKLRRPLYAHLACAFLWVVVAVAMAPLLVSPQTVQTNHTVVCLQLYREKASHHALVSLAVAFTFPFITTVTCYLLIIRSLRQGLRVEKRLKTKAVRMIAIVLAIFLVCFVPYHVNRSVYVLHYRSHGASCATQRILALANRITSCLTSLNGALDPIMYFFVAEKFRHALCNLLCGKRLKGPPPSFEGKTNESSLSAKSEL
Changes in intracellular cyclic adenosine monophosphate (cAMP) levels were quantified using the Nano-TRF Detection Assay kit (Roche Diagnostics, Cat. No. 05214386001). This assay allows for direct cAMP quantification in a homogeneous solution. CAMP is detected based on time-resolved fluorescence energy transfer (TR-FRET) and competitive binding of ruthenylated cAMP and endogenous cAMP to an anti-cAMP monoclonal antibody labeled with AlexaFluor-700. The Ruthenium complex serves as the FRET donor and transfers energy to AlexaFluor-700. The FRET signal is inversely proportional to the CAMP concentration.
CHO-GPR17S cells were detached with Accutase and resuspended in assay buffer consisting of Hank's Balanced Salt Solution (HBSS), 10 mM HEPES (4-(2-hydroxyethyl) piperazine-1-ethanesulfonic acid solution) and 0.1% bovine serum albumin (pH 7.4). The cells were seeded in black 384-well plates (Corning) at a density of 10′000 cells/20 μl assay buffer until the addition of compounds.
Test antagonist compounds were serially diluted in dimethyl sulfoxide (DMSO) and spotted in 384-well plates. The compounds were then diluted in HBSS buffer supplemented with an EC80 concentration of MDL29,951 (3-(2-Carboxy-4,6-dichloroindol-3-yl) propionic acid) (GPR17 agonist) plus 3-Isobutyl-1-methylxanthine (IBMX) (0.5 mM final concentration) and added to the cells at room temperature. Forskolin (15 μM final concentration) was added 5 minutes after the test compounds and the cells were incubated at room temperature for 30 minutes. The assay was stopped by adding cAMP detection mix (containing detergents for cell lysis) for 90 minutes at room temperature.
Cellular cAMP was measured using a Paradigm reader (Molecular Devices). The raw data was used to calculate the FRET signal based on the assay's P-factor as per cAMP kit instructions. The data was normalized to the maximal activity of a reference antagonist and dose response curves were fitted to the percent activity of the test compounds using a sigmoidal dose response model (Genedata Screener).
As to `COc1nc(OCC(F)F)c(F)cc1NS(=O)(=O)c1cnc2c(=O)n(C)ccn12` [Example 58, N-[6-(2,2-difluoroethoxy)-5-fluoro-2-methoxy-3-pyridyl]-8-keto-7-methyl-imidazo[1,2-a]pyrazine-3-sulfonamide], the IC50 – broadly, the concentration that gives 50% inhibition – was found to be 174 nM. This lies in the sub-micromolar range.
The compound `COc1nc(OCC(F)F)c(F)cc1NS(=O)(=O)c1cnc2cc(C#N)ccn12` [Example 59, 7-cyano-N-[6-(2,2-difluoroethoxy)-5-fluoro-2-methoxy-3-pyridyl]imidazo[1,2-a]pyridine-3-sulfonamide] yielded an IC50 of 176 nM.
For `COc1ccn2c(S(=O)(=O)Nc3cc(F)c(OCC(F)F)nc3OC)cnc2c1C#N` [Example 60, 8-cyano-N-[6-(2,2-difluoroethoxy)-5-fluoro-2-methoxy-3-pyridyl]-7-methoxy-imidazo[1,2-a]pyridine-3-sulfonamide] the value was 179 nM; for `COc1c(Cl)ccn2c(S(=O)(=O)Nc3cc(F)c(CC#N)cc3F)cnc12` [Example 61, 7-chloro-N-[4-(cyanomethyl)-2,5-difluoro-phenyl]-8-methoxy-imidazo[1,2-a]pyridine-3-sulfonamide], 181 nM; for `COc1nc(OCC(F)F)c(F)cc1NS(=O)(=O)c1cnc2n1CCC(OC)C2` (stereo not drawn) [Example 62, N-[6-(2,2-difluoroethoxy)-5-fluoro-2-methoxy-3-pyridyl]-7-methoxy-5,6,7,8-tetrahydroimidazo[1,2-a]pyridine-3-sulfonamide], 217 nM.
In turn, `COc1nc(OCC(F)F)c(F)cc1NS(=O)(=O)c1cnc2n1CCCC2` [Example 63, N-[6-(2,2-difluoroethoxy)-5-fluoro-2-methoxy-3-pyridyl]-5,6,7,8-tetrahydroimidazo[1,2-a]pyridine-3-sulfonamide] yielded an IC50 of 217 nM.
For `N#CCc1cc(F)c(NS(=O)(=O)c2cnc3cc(Cl)ccn23)cc1F` [Example 64, 7-chloro-N-(4-(cyanomethyl)-2,5-difluorophenyl)imidazo[1,2-a]pyridine-3-sulfonamide] the value was 251 nM.
For `COc1nc(OCC(F)F)c(F)cc1NS(=O)(=O)c1cnc2c(C#N)c(OC(F)F)ccn12` [Example 65, 8-cyano-N-[6-(2,2-difluoroethoxy)-5-fluoro-2-methoxy-3-pyridyl]-7-(difluoromethoxy)imidazo[1,2-a]pyridine-3-sulfonamide] the value was 270 nM; for `Cc1ccn2c(S(=O)(=O)Nc3cc(F)c(OC(F)F)nc3OC(F)F)cnc2c1C#N` [Example 66, N-[2,6-bis(difluoromethoxy)-5-fluoro-3-pyridyl]-8-cyano-7-methyl-imidazo[1,2-a]pyridine-3-sulfonamide], 289 nM; for `Cc1ccn2c(S(=O)(=O)Nc3cc(F)c(CC#N)cc3F)cnc2c1C#N` [Example 67, 8-cyano-N-[4-(cyanomethyl)-2,5-difluoro-phenyl]-7-methyl-imidazo[1,2-a]pyridine-3-sulfonamide], 301 nM.
Then `N#CCc1cc(F)c(NS(=O)(=O)c2cnc3c(F)c(Cl)ccn23)cc1F` [Example 68, 7-chloro-N-[4-(cyanomethyl)-2,5-difluoro-phenyl]-8-fluoro-imidazo[1,2-a]pyridine-3-sulfonamide], with 329 nM; and `COc1nc(OCC(F)F)c(F)cc1NS(=O)(=O)c1cnc2c(C#N)cccn12` [Example 69, 8-cyano-N-[6-(2,2-difluoroethoxy)-5-fluoro-2-methoxy-3-pyridyl]imidazo[1,2-a]pyridine-3-sulfonamide], with 393 nM; and `COc1nc(C2COC2)c(F)cc1NS(=O)(=O)c1cnc2cc(Cl)ccn12` [Example 70, 7-chloro-N-[5-fluoro-2-methoxy-6-(oxetan-3-yl)-3-pyridyl]imidazo[1,2-a]pyridine-3-sulfonamide], with 407 nM.
`COc1nc(OCC(F)F)c(F)cc1NS(=O)(=O)c1cnc2c(C)cccn12` [Example 71, N-[6-(2,2-difluoroethoxy)-5-fluoro-2-methoxy-3-pyridyl]-8-methyl-imidazo[1,2-a]pyridine-3-sulfonamide] had a half-maximal inhibitory concentration (IC50) of 413 nM.
Then `COc1nc(OCC(F)F)c(F)cc1NS(=O)(=O)c1cnc2n1CC(C)C2` (stereo not drawn) [Example 72, N-[6-(2,2-difluoroethoxy)-5-fluoro-2-methoxy-3-pyridyl]-6-methyl-6,7-dihydro-5H-pyrrol[1,2-a]imidazole-3-sulfonamide], with 449 nM; and `COc1ccn2c(S(=O)(=O)Nc3cc(F)c(CC#N)cc3F)cnc2n1` [Example 73, N-[4-(cyanomethyl)-2,5-difluoro-phenyl]-7-methoxy-imidazo[1,2-a]pyrimidine-3-sulfonamide], with 876 nM.
Then `COc1nc(NS(=O)(=O)c2cnc3cc(Cl)ccn23)ncc1OCCF` [Example 74, 7-chloro-N-[5-(2-fluoroethoxy)-4-methoxy-pyrimidin-2-yl]imidazo[1,2-a]pyridine-3-sulfonamide], with 897 nM.
For `COc1nc(OCC(F)F)c(F)cc1NS(=O)(=O)c1cnc2n1CCC2C` (stereo not drawn) [Example 75, N-[6-(2,2-difluoroethoxy)-5-fluoro-2-methoxy-3-pyridyl]-7-methyl-6,7-dihydro-5H-pyrrol[1,2-a]imidazole-3-sulfonamide] the value was 974 nM.
As to `Cc1ccn2c(S(=O)(=O)Nc3cc(F)c(CC#N)cc3F)cnc2n1` [Example 76, N-[4-(cyanomethyl)-2,5-difluoro-phenyl]-7-methyl-imidazo[1,2-a]pyrimidine-3-sulfonamide], the IC50 came out at 1030 nM. This IC50 and that of the compound before are within 1.5-fold of each other.
For `COc1nc(CC#N)c(F)cc1NS(=O)(=O)c1cnn2cc(Br)ccc12` [Example 77, 6-bromo-N-[6-(cyanomethyl)-5-fluoro-2-methoxy-3-pyridyl]pyrazolo[1,5-a]pyridine-3-sulfonamide] the value was 6 nM; for `COc1nc(OCC(F)F)c(F)cc1NS(=O)(=O)c1cnn2cc(Br)ccc12` [Example 78, 6-bromo-N-[6-(2,2-difluoroethoxy)-5-fluoro-2-methoxy-3-pyridyl]pyrazolo[1,5-a]pyridine-3-sulfonamide], 10 nM.
`COc1nc(NS(=O)(=O)c2cnn3cc(Br)ccc23)c(F)cc1CC#N` [Example 79, 6-bromo-N-[5-(cyanomethyl)-3-fluoro-6-methoxy-2-pyridyl]pyrazolo[1,5-a]pyridine-3-sulfonamide] yielded an IC50 of 20 nM.
Regarding `COc1nc(NS(=O)(=O)c2cnn3cc(Br)ccc23)c(F)cc1OCCF` [Example 80, 6-bromo-N-[3-fluoro-5-(2-fluoroethoxy)-6-methoxy-2-pyridyl]pyrazolo[1,5-a]pyridine-3-sulfonamide], the IC50 was 26 nM.
In the case of `COc1nc(NS(=O)(=O)c2cnn3cc(Br)ccc23)c(F)cc1OCC(F)F` [Example 81, 6-bromo-N-[5-(2,2-difluoroethoxy)-3-fluoro-6-methoxy-2-pyridyl]pyrazolo[1,5-a]pyridine-3-sulfonamide], the 50% inhibitory concentration (IC50) came to 49 nM. Compared with the last compound, the IC50 is about 1.9-fold higher.
On to `COc1nc(C2CC2)c(F)cc1NS(=O)(=O)c1cnn2cc(Br)ccc12` [Example 82, 6-bromo-N-(6-cyclopropyl-5-fluoro-2-methoxy-3-pyridyl)pyrazolo[1,5-a]pyridine-3-sulfonamide], for which the IC50 amounted to 100 nM.
`COc1nc(OCC(F)F)c(F)cc1NS(=O)(=O)c1cnn2c1CCC(C)C2` (stereo not drawn) [Example 83, N-[6-(2,2-difluoroethoxy)-5-fluoro-2-methoxy-3-pyridyl]-6-methyl-4,5,6,7-tetrahydropyrazolo[1,5-a]pyridine-3-sulfonamide]: the IC50 turned out to be 100 nM.
Then `COc1nc(OCC(F)F)c(F)cc1NS(=O)(=O)c1cnn2c(C#N)c(C)ccc12` [Example 84, 7-cyano-N-[6-(2,2-difluoroethoxy)-5-fluoro-2-methoxy-3-pyridyl]-6-methyl-pyrazolo[1,5-a]pyridine-3-sulfonamide], with 130 nM; and `O=S(=O)(Nc1cc(F)c(OC(F)F)cc1F)c1cnn2cc(Br)ccc12` [Example 85, 6-bromo-N-[4-(difluoromethoxy)-2,5-difluoro-phenyl]pyrazolo[1,5-a]pyridine-3-sulfonamide], with 251 nM; and `COc1nc(C2COC2)c(F)cc1NS(=O)(=O)c1cnn2cc(Br)ccc12` [Example 87, 6-bromo-N-[5-fluoro-2-methoxy-6-(oxetan-3-yl)-3-pyridyl]pyrazolo[1,5-a]pyridine-3-sulfonamide], with 367 nM.
Then `COc1nc(OCC(F)F)c(F)cc1NS(=O)(=O)c1cnn2c1COC(C)C2` (stereo not drawn) [Example 88, N-[6-(2,2-difluoroethoxy)-5-fluoro-2-methoxy-3-pyridyl]-6-methyl-6,7-dihydro-4H-pyrazolo[5,1-c][1,4]oxazine-3-sulfonamide], with 692 nM.
